Assay results: patent US20170151268A1, “GLYCAN THERAPEUTICS AND RELATED METHODS THEREOF” (KALEIDO BIOSCIENCES, INC., priority 2015, published 2017)
Converted amounts (≈) assume the structure as drawn.

Experiments:
[1] = 25° C., reported by Sigma-Aldrich; cited from earlier work
gut microbiota = experiment: Mouse model of Clostridium difficile infection, gut microbiota 16S rRNA sequencing; assay type: in vivo; details: Day 6; predicted from 16S rRNA sequencing using PICRUST
Method: (§1) Mice (female C57BL/6, 8-10 weeks old, 16-18 grams each; Harlan Laboratories, Indianapolis, Ind.) were housed in groups of 3 per cage, with 4 cages per treatment group. Mice were exposed to a cocktail of antibiotics in their drinking water for a period of 9 days, starting on day −14, fourteen days before Clostridium difficile challenge on day 0. The antibiotic cocktail consisted of 1% glucose, kanamycin (0.5 mg/ml), gentamicin (0.044 mg/ml), colistin (1062.5 U/ml), metronidazole (0.269 mg/ml), ciprofloxacin (0.156 mg/ml), ampicillin (0.1 mg/ml) and vancomycin (0.056 mg/ml). Three days prior to Clostridium difficile challenge (on Day −3), mice received a single dose of clindamycin (10 mg/kg) in a volume of 0.5 mL distilled water by oral gavage (PO) (see Table 10). All chemicals were purchased from Sigma-Aldrich Corp. (St. Louis, Mo.). On day 0, mice were challenged with Clostridium difficile (strain VPI 10463 (ATCC-43255)) spores at approximately 4.5 log10 spores per mouse, PO, in a dose volume of 0.5 mL distilled water.
To determine how the gut microbiota composition responds to treatment with glycan therapeutics, 16S rRNA sequencing of fecal pellets on the V4 variable region using standard protocols from the Earth Microbiome Project was performed (www.earthmicrobiome.org/emp-standard-protocols/). […]

[2] = test system: Clostridium difficile (strain VPI 10463 (ATCC-43255)); experiment: Mouse model of Clostridium difficile infection, disease-associated phenotypes; assay type: in vivo
Method: This experiment was conducted to analyze the effects of glycan therapeutics in a mouse model of Clostridium difficile infection (Chen et al, 2008, A Mouse Model of Clostridium difficile—Associated Disease. Gastroenterology 135(6), 1984-1992). In this model, normal mice were exposed to an antibiotic regimen that renders them susceptible to C. difficile infection and disease symptoms, similar with respect to their development and manifestation of human clinical disease. In humans, the disease is most often the result of exposure to broad spectrum antibiotics which is thought to result in intestinal dysbiosis and subsequent increased colonic colonization with C. difficile. The increased bio-burden of C. difficile leads to toxin production by the bacterium and colonic inflammation. Clinical manifestations in humans include diarrhea, weight loss, intestinal inflammation, fever and dehydration. The clinical incidence of C. difficile infection and disease is about 750,000 cases per year in the US.
as §1
Disease-associated phenotypes were recorded for a duration of ten days starting on the day of Clostridium difficile challenge (on day 0) through day 10. The phenotypes, including lethargy, hunched posture and ruffled coat, wet tail/abdomen and hypothermia were scored from 0 to 4: Normal=0; Lethargic=1; Lethargic+Hunched=2; Lethargic+Hunched+Wet tail/abdomen (diarrhea)=3; and Lethargic+Hunched+Wet tail/abdomen+Hypothermic=4. Death (day 0 to day 10 or 11) and weight (day 1 to day 7 and day 10) of the animals was also monitored and recorded.
In these studies, all animals with wet tail/abdomen (diarrhea; clinical score of “3”) progressed to death. Diarrhea is an indication of colonic inflammation and hemorrhage and is a contributing factor to the weight loss seen in rodent models of C. difficile colonization/infection.
A treatment's ability to protect animals from death through day 6 in these experiments indicates disease prevention, e.g., in a human.
In addition, carriage of Clostridium difficile spores, which is indicative of Clostridium difficile gut colonization in both mice and humans, was assessed daily from day 0 to day 6. For spore CFU enumeration, fecal pellets from the mice were suspended in 50% ethanol in phosphate-buffered saline (PBS) and vortexed. […]
Effects of treatments was assessed by comparing the disease-associated phenotypes in glycan-treated, untreated (plain water) and vancomycin-treated groups. […]

## O=C[C@H](O)[C@@H](O)[C@H](O)[C@H](O)CO [D-glucose]
[1]
  aqueous solubility: 909 mg/mL (≈ 5050 mM)
  aqueous solubility as Brix: 48 Brix

## CN[C@H](CC(C)C)C(=O)N[C@H]1C(=O)N[C@@H](CC(N)=O)C(=O)N[C@H]2C(=O)N[C@H]3C(=O)N[C@H](C(=O)N[C@H](C(=O)O)c4cc(O)cc(O)c4-c4cc3ccc4O)[C@H](O)c3ccc(c(Cl)c3)Oc3cc2cc(c3O[C@@H]2O[C@H](CO)[C@@H](O)[C@H](O)[C@H]2O[C@H]2C[C@](C)(N)[C@H](O)[C@H](C)O2)Oc2ccc(cc2Cl)[C@H]1O [vancomycin]
Gut microbiota
  predicted functional potential of the gut microbiome to convert primary bile acids to secondary bile acids: not observed
[2]; PO gavage QD days 0 to 4
  animals died by day 10: 17%
  animals survived to day 7: 100%
[2]; after treatments were discontinued, through day 10 or 11
  clinical score of survivors (0 to 4): above 0
[2]; days 0-6
  C. difficile spores in the feces: no detectable spores
[2]; mouse, in vivo
  clinical signs on day 10: exhibited clinical signs
